Assay results from paper PMC3256212, “Mechanism and Function of Drosophila capa GPCR: A Desiccation Stress-Responsive Receptor with Functional Homology to Human NeuromedinU Receptor” (PLoS ONE, 2012).
Ends that are not written are not given here.

Tests used:
capaR (CG14575) = molecular target: T1, capaR (CG14575) (Drosophila melanogaster, UniProt Q8ITC7); test: [Ca2+]i (aequorin) in capaR-transfected S2 cells; type: cell-based; conditions: for EC50: S2 cells expressing capaR and apoaequorin, maximal - background, mean ± S.E.M., N = 6 (Fig. 1C), read-out: EC50 for stimulated [Ca2+]i responses via capaR; for effect on [Ca2+]i via capaR: 10^−7 M, S2 cells (Fig. 3A)
T1 construct: The ORF of capaR was amplified from whole fly cDNA as template; expressed in transfected cells; host or cells: Drosophila S2 cells (pMT/V5-His TOPO, CuSO4 induction)
T1 sequence (Q8ITC7 1-477): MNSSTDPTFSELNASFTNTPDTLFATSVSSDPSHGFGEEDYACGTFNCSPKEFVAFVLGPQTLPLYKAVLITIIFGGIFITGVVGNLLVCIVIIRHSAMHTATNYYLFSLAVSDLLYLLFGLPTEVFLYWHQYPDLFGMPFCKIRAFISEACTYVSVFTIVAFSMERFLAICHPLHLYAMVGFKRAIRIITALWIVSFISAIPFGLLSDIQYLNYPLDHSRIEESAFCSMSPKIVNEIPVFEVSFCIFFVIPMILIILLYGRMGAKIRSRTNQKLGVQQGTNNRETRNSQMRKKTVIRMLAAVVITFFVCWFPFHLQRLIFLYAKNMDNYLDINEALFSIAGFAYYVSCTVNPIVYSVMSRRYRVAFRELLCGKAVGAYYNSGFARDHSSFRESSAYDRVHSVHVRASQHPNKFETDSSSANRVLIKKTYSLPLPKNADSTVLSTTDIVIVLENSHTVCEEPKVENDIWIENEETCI
Description: The ORF of capaR was amplified from whole fly cDNA as template using the primers 5′-[…]-3′ and 5′-[…]-3′ and cloned into pMT/V5-His TOPO vector (Invitrogen). The eYFP ORF was fused in-frame at the C-terminus of the capaR using KpnI and ApaI sites and the tagged construct was cloned into the pMT/V5-His TOPO vector.
(§1) The capa peptides Drm-capa-1 (GANMGLYAFPRVamide), Drm-capa-2 (ASGLVAFPRVamide), Drm-PK-1 (TGPSASSGLWFGPRLamide), Drm-PK-2 (SVPFKPRLamide) and hugin gamma (hugg, pQLQSNGEPAYRVRTPRL-amide) were synthesised as C-terminally amidated peptides (Biomatik Corporation, Canada). Peptides were dissolved in distilled ACN/H2O to a concentration of 1 mM and then diluted to the required working concentration in Schneider's medium (Invitrogen Inc.). Human neuromedin U-25 was purchased from Sigma. Rabbit polyclonal antibody to porcine neuromedinU-8 was purchased from Progen biotechnik (Heidelberg, Germany). Rabbit capa precursor peptide used was described in [21] Rabbit anti-peptide antibody was raised against the capaR epitope (CQQGTNNRETRNSQM) by Genosphere Biotechnologies (Paris, France) and purified on a HiTrap NHS-activated HP column (Amersham Pharmacia Bio-tech; Buckinghamshire, UK) according to the manufacturer's instructions. Immunohistochemistry was carried out as described previously. Mouse anti-GFP primary antibody (Zymed) and the antiserum to neuromedinU-8 were all diluted 1∶1000 or, in the case of the pre-immune serum, the affinity-purified capaR antibody and the antiserum to the capa precursor peptide, 1∶500. Incubations in the primary antibodies were performed overnight. A FITC-conjugated affinity-purified goat anti-mouse antibody (Jackson Immunologicals) was used in a dilution of 1∶1,000 for visualization of the mouse monoclonal anti-GFP. A Texas red-conjugated affinity-purified goat anti-rabbit antibody (Jackson Immunologicals) was used at a dilution of 1∶1,000 for visualization of the rabbit capaR antiserum.
(§2) Drosophila S2 cells, cultured under standard conditions were transiently transfected with the apoaequorin ORF [21] and a receptor ORF construct, and expression induced using CuSO4. Transfected S2 cells were harvested and incubated with 2.5 µM coelenterazine in the dark at RT for 1–2 h as previously described. 25,000 cells were then placed in 135 µl Schneider's medium supplemented with 10% FCS in a well of a white polystyrene 96-well plate (Berthold Technologies). Bioluminescence recordings were carried out using a Mithras LB940 automated 96-well plate reader (Berthold Technologies) and MikroWin software. 15 µl of each of different peptides were applied to final concentrations as required. At the end of each recording samples were disrupted by the addition of 100 µl lysis solution, and the [Ca^2+] concentrations calculated as previously described. For assays in Ca^2+-free medium, transfected cells were collected and pelleted after incubation with coelenterazine. Cell pellets were re-suspended in Ca^2+-free Schneider's medium (Invitrogen Inc.) without FCS and collected by centrifugation. The washing and pelleting procedure was repeated once more. Experiments were then carried out on 25,000 cells per sample as above. To verify whether the observed calcium signal was linked to phospholipase C (PLC) activation, S2-capaR cells were preincubated with the PLC inhibitor U73122 at concentration of 10^−3 M to 10^−8 M for 10 min. Luminometry experiments were carried out on live, intact tubules expressing a targeted transgene for cytosolic-targeted apoaequorin in either principal or stellate cells as previously described, [22]. For in vivo tubule experiments, flies of the following genotypes were used: c42aeq, capaR-GAL4, UAS-capaR, UAS-capaR RNAi, UAS-NMUR 2 and the resulting progeny from GAL4>UAS crosses.

NMU receptor 2 (NMUR 2) = molecular target: T2, NMU receptor 2 (NMUR 2) (Homo sapiens, UniProt Q9GZQ4); test: [Ca2+]i (aequorin) in NMUR 2-transfected S2 cells; type: cell-based; conditions: 10^−7 M, S2 cells (Fig. 3B)
T2 construct: expressed in transfected cells; host or cells: Drosophila S2 cells (pMT/V5-His TOPO)
T2 sequence (Q9GZQ4 whole entry): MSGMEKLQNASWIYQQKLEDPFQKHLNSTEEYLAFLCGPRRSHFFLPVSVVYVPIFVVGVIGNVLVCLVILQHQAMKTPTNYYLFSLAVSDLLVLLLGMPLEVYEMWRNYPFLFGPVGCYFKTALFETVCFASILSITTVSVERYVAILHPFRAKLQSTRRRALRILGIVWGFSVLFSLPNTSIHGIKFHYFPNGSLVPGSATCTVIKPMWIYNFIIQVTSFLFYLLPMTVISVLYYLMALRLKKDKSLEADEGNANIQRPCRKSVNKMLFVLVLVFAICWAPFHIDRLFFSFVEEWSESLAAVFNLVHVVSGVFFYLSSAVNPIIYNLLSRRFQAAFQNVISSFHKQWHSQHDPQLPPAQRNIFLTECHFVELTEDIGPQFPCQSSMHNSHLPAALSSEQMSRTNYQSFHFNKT
Method: as §1
as §2, with “Experiments were then carried out on 25,000 cells per sample as above. To verify whether the observed calcium signal was linked to phospholipase C (PLC) activation, S2-capaR cells were preincubated with the PLC inhibitor U73122 at concentration of 10^−3 M to 10^−8 M for 10 min. Luminometry experiments were carried out on live, intact tubules expressing a targeted transgene for cytosolic-targeted apoaequorin in either principal or stellate cells as previously described, [22]. For in vivo tubule experiments, flies of the following genotypes were used: c42aeq, capaR-GAL4, UAS-capaR, UAS-capaR RNAi, UAS-NMUR 2 and the resulting progeny from GAL4>UAS crosses.” left out

CG8795 (hugin receptor) = test: [Ca2+]i (aequorin) in CG8795-transfected S2 cells; type: cell-based, Drosophila; conditions: 10^−7 M, S2 cells (Fig. 3C)
Method: as §1, with “A Texas red-conjugated affinity-purified goat anti-rabbit antibody (Jackson Immunologicals) was used at a dilution of 1∶1,000 for visualization of the rabbit capaR antiserum.” left out
Drosophila S2 cells, cultured under standard conditions were transiently transfected with the apoaequorin ORF [21] and a receptor ORF construct, and expression induced using CuSO4. […] Bioluminescence recordings were carried out using a Mithras LB940 automated 96-well plate reader (Berthold Technologies) and MikroWin software. […] At the end of each recording samples were disrupted by the addition of 100 µl lysis solution, and the [Ca^2+] concentrations calculated as previously described. […]

Malpighian tubule = test: Fluid transport by wild-type Malpighian tubules; design: species or system Drosophila melanogaster; conditions: 10^−7 M; mean ± SEM, N = 6–10, Student's t-test P<0.05 (Fig. 4A)
Method: Fluid transport assays were carried out as previously described using live, intact tubules dissected from 7-day-old adults with the following genotypes: wild-type Canton-S, c42-GAL4>UAS-capaR RNAi, actin-GAL4>UAS-NMUR 2. Fluid droplets were collected every 10 min, and the volumes of fluid were calculated. Basal rates of fluid secretion were monitored for 30 min, whereupon peptide was added, and the secretion rate was then recorded for a further 30 min.

NMR 1 = tested on: NMR 1; design: method as in earlier work; conditions: CHO cells; ref 39 (Fujii et al.); cited from earlier work
phospholipase C (PLC) = test: PLC inhibition: capa-1-induced [Ca2+]i response in S2-capaR cells; type: cell-based, Drosophila; conditions: Fig. 1D
Method: as §2, with “To verify whether the observed calcium signal was linked to phospholipase C (PLC) activation, S2-capaR cells were preincubated with the PLC inhibitor U73122 at concentration of 10^−3 M to 10^−8 M for 10 min. Luminometry experiments were carried out on live, intact tubules expressing a targeted transgene for cytosolic-targeted apoaequorin in either principal or stellate cells as previously described, [22]. For in vivo tubule experiments, flies of the following genotypes were used: c42aeq, capaR-GAL4, UAS-capaR, UAS-capaR RNAi, UAS-NMUR 2 and the resulting progeny from GAL4>UAS crosses.” left out

[1] = molecular target: T3, capa receptor (capaR, CG14575) expressed in S2 cells (D. melanogaster) (UniProt Q8ITC7)
T3 sequence: T1 sequence (Q8ITC7 1-477)

[2] = molecular target: human neuromedin U receptor 2 (human) (UniProt Q9GZQ4)
Sequence of human neuromedin U receptor 2 (human) (Q9GZQ4 whole entry): as above

[3] = molecular target: T3, capa receptor (capaR, CG14575) expressed in S2 cells (D. melanogaster); remark: listed apart in the source

CSCC[C@H](NC(=O)[C@H](CC(N)=O)NC(=O)[C@H](C)NC(=O)CN)C(=O)NCC(=O)N[C@@H](CC(C)C)C(=O)N[C@@H](Cc1ccc(O)cc1)C(=O)N[C@@H](C)C(=O)N[C@@H](Cc1ccccc1)C(=O)N1CCC[C@H]1C(=O)N[C@@H](CCCNC(=N)N)C(=O)N[C@H](C(N)=O)C(C)C [capa-1]
EC50 (capaR (CG14575)): 3.06 nM

pQLQSNGEPAYRVRTPRL-amide [hugg, hugin gamma, p…-amide]
effect on [Ca2+]i via capaR (capaR (CG14575)): but not hugg nor Drm-PK-2, increases intracellular calcium ([Ca^2+]i) levels via capaR
effect on [Ca2+]i via NMUR 2 (NMU receptor 2 (NMUR 2)): increases [Ca^2+]i via NMUR 2 but to a reduced level compared to capa-1
effect on [Ca2+]i via CG8795 (CG8795 (hugin receptor)): stimulates increased [Ca^2+]i levels
fluid transport by wild-type tubules (Malpighian tubule): not with Drm-PK-1, hugg, Drm-PK-2

MNYLAFPRM-NH2 [SCPB]
agonistic activity to NMR 1 (NMR 1): significant agonistic activity

SVPFKPRL-NH2 [Drm-PK-2, Drosophila pyrokinin, SVPFKPRLamide]
effect on [Ca2+]i via capaR (capaR (CG14575)): do not have effects on either capaR
effect on [Ca2+]i via NMUR 2 (NMU receptor 2 (NMUR 2)): do not have effects on either capaR (Fig. 3A) or NMUR 2
effect on [Ca2+]i via CG8795 (CG8795 (hugin receptor)): stimulates increased [Ca^2+]i levels
fluid transport by wild-type tubules (Malpighian tubule): not with Drm-PK-1, hugg, Drm-PK-2

TGPSASSGLWFGPRL-NH2 [Drm-PK-1, Drosophila pyrokinin, …amide]
effect on [Ca2+]i via capaR (capaR (CG14575)): do not have effects on either capaR
effect on [Ca2+]i via NMUR 2 (NMU receptor 2 (NMUR 2)): do not have effects on either capaR (Fig. 3A) or NMUR 2
effect on [Ca2+]i via CG8795 (CG8795 (hugin receptor)): stimulates increased [Ca^2+]i levels
fluid transport by wild-type tubules (Malpighian tubule): not with Drm-PK-1, hugg, Drm-PK-2

CC(C)C[C@H](NC(=O)CNC(=O)[C@H](CO)NC(=O)[C@H](C)N)C(=O)N[C@H](C(=O)N[C@@H](C)C(=O)N[C@@H](Cc1ccccc1)C(=O)N1CCC[C@H]1C(=O)N[C@@H](CCCNC(=N)N)C(=O)N[C@H](C(N)=O)C(C)C)C(C)C [capa-2]
EC50 (capaR (CG14575)): 4.32 nM

COc1ccc2c(c1)CC[C@@H]1[C@@H]2CC[C@]2(C)[C@@H](NCCCCCCN3C(=O)C=CC3=O)CC[C@@H]12 [U73122]
inhibition of capa-1-induced [Ca2+]i response (phospholipase C (PLC)): inhibited by the widely-used PLC inhibitor (U73122) in a dose-dependent manner

GANMGLYAFPRV-NH2 [Drm-capa-1]
[Ca2+]i (aequorin luminescence) in S2 cells expressing capaR and apoaequorin, dose-response to capa-1 [1]: 3.06 nM

FRVDEEFQSPFASQSRGYFLFRPRN-NH2 [Human neuromedin U-25]
[Ca2+]i in S2 cells expressing NMUR 2 and apoaequorin, dose-response to NMU-25 [2]: 0.91 nM
[Ca2+]i, dose-response to NMU-25; first of two values given 'respectively', probably capaR- and apoaequorin-co-transfected S2 cells [3]: 21.8 nM
[Ca2+]i, dose-response to NMU-25; second of two values given 'respectively', probably intact tubules expressing apoaequorin in principal cells (endogenous capaR) [3]: 27.1 nM

ASGLVAFPRV-NH2 [Drm-capa-2]
[Ca2+]i (aequorin luminescence) in S2 cells expressing capaR and apoaequorin, dose-response to capa-2 [1]: 4.32 nM
